Measurements: patent US8680120B2, “Indole derivative or pharmaceutically acceptable salt thereof” (Kissei Pharmaceutical Co., Ltd., priority 2009, dated 2014)

Tests used:
rat EP1 receptor = rat EP1 receptor (Rattus norvegicus (Rat), UniProt P70597); experiment: Test for confirmation of EP1 receptor antagonism: inhibition of the prostaglandin E2-induced increase in intracellular calcium concentration in rat EP1 receptor-expressing COS-1 cells; type: cell-based; conditions: Method A: Fluo-4 NW Calcium Assay Kit, FlexStation; prostaglandin E2 10 nM; rat EP1 receptor-expressing COS-1 cells
Procedure: (1) Preparation of Rat EP1 Expression Vector
Using Rat Kidney BD Marathon-Ready cDNA (Nippon Becton Dickinson Company, Ltd.) as a template, a forward primer shown in SEQ ID NO. 1, and a reverse primer shown in SEQ ID NO. 2, a first run of PCR was carried out using KOD-Plus-Ver 2.0 (Toyobo Co., Ltd.). Further, using this amplification product as a template, a forward primer shown in SEQ ID NO. 3, and a reverse primer shown in SEQ ID NO. 4, a second run of PCR was carried out in the same manner. The amplification product obtained by the second run of PCR was incorporated into a vector (pcDNA3.1 D/V5-His-TOPO (registered trademark), Invitrogen Japan K. K.). By a conventional method, the vector containing this amplification product was introduced to E. coli (One Shot TOP10 Competent Cells, Invitrogen Corporation) to transform. This transformed E. coli was cultured in an LB agar medium for one day. After the culture, colonies were selected and cultured in an LB liquid medium containing 50 μg/mL of ampicillin. After the culture, the vector was purified using a QIAprep Spin Miniprep Kit (Qiagen K. K.). The base sequence of the insertion site of this vector (SEQ ID NO. 5) was compared with the rat EP1 base sequence (Ptger1) registered as an accession number NM_013100 in well-known database (NCBI), and as a result, they all matched except for a single base. Further, the amino acid sequence translated by the base sequence completely matched the amino acid sequence of the rat EP1 receptor registered as an NCBI accession number NP_037232. Therefore, it was confirmed that the cloned gene sequence was a base sequence of the rat EP1 receptor and the obtained amino acid sequence was that of the rat EP1 receptor. The pcDNA3.1 D/V5-His-TOPO (registered trademark) to which the nucleic acid shown in SEQ ID NO. 5 had been inserted was taken as a rat EP1-expressing vector.
(2) Preparation of Rat EP1 Receptor-Expressing Cells
COS-1 cells (Dainippon Sumitomo Pharma Co., Ltd.) were cultured until it reached confluence in an incubator at 37° C. under a 5% CO2 gas condition, using a D-MEM liquid medium (high glucose and L-glutamine contained, Invitrogen Corporation) to which a penicillin-streptomycin solution (Invitrogen Corporation, final concentration: 100 U/mL as benzylpenicillin; 100 μg/mL as streptomycin) as an antibiotic, MEM nonessential amino acids (Invitrogen Corporation, final Concentration: 0.1 mM), and fetal calf serum (Sanko Junyaku Co., Ltd., final concentration: 10%) were added.
The cells that had reached confluence were stripped with 0.05% trypsin/0.53 mM EDTA 4Na (Invitrogen Japan K. K.) and resuspended in the liquid medium. The resuspended cells were diluted and cultured in the liquid medium at a spread ratio from 1:4 to 1:8.
The cells that had reached confluence were stripped with 0.05% trypsin/0.53 mM EDTA.4Na, and resuspended in a D-MEM liquid medium (high glucose and L-glutamine contained, Invitrogen Corporation) to which an MEM nonessential amino acid (final concentration: 0.1 mM) and fetal calf serum (final concentration: 10%) were added. In each well of a Poly D-lysine-coated 96-well microplate (BD BioCoat (registered trademark), Nippon Becton Dickinson Company, Ltd.), this resuspended cell suspension culture was prepared to be 5×10^4 cells/well in 100 μL of the liquid medium, and seeded thereon. After seeding, the cells were cultured in an incubator at 37° C. under a 5% CO2 gas condition. At a point when the cells for introduction of a rat EP1-expressing vector were adhered (about 2 hours after seeding), introduction of the rat EP1-expressing vector was carried out in the following order.
For introduction of the rat EP1-expressing vector, Lipofectamine 2000 (Invitrogen Japan K. K.) was used. […]

Female SD rats = experiment: Inhibitory effect of compound on sulprostone-induced bladder contraction; type: in vivo, rat; conditions: sulprostone 0.3 mg/kg subcutaneously, urethane-anesthetized female SD rats; for Bladder Contraction Inhibition Rate (%) 15 Minutes: 15 minutes after test agent 1.0 mg/kg intravenously; for Bladder Contraction Inhibition Rate (%) 60 Minutes: 60 minutes after test agent 1.0 mg/kg intravenously
Procedure: Female SD rats were used. Under urethane anesthesia (1.25 g/kg, administered subcutaneously), a tracheal cannula (Size 8, HIBIKI) and a femoral vein cannula for administration (23 G needle-equipped PE50) were inserted thereinto. The bladder cannula (PE50) was inserted from the bladder apex. The bladder cannula was connected to a three-way stopcock, and then, one was connected to a pressure transducer and the other was connected to a syringe filled with saline. Saline was injected to the bladder at an injection rate of 3.6 mL/hour and the bladder contraction pressure was recorded at the time of injection with a recorder (RECTI-HORITZ-8K, NEC Corporation). After 10 minutes from stabilization of the bladder contraction pressure during urination, sulprostone was administered subcutaneously (0.3 mg/kg). Then, at the time point when the bladder contraction pressure became constant, a test agent was administered intravenously (1.0 mg/kg). An average bladder contraction pressure during the 10 minutes period before administration of sulprostone was taken as a baseline (0%). Further, an average bladder contraction pressure during the 10 minutes period before administration of the test agent was taken as a maximum bladder contraction pressure (100%). The average bladder contraction pressures were measured during 5 minutes before and after at 15 minutes and 60 minutes from administration of the test agent. The ratio of this measured value to the maximum bladder contraction pressure was calculated by the following equation and taken as an average bladder contraction rate after administration of the test agent: (Average Bladder Contraction Rate after Administration of Test Agent (%))=(Average Bladder Contraction Pressure after Administration of Test Agent)/(Maximum Bladder Contraction Pressure). In addition, the difference between the maximum bladder contraction rate (100%) and the average bladder contraction rate (%) after administration of the test agent was calculated by the following equation and taken as a bladder contraction inhibition rate of the test agent: (Bladder Contraction Inhibition Rate)=100%−(Average Bladder Contraction Rate after Administration of Test Agent (%)).

rat EP1 receptor, sequence (P70597 whole entry): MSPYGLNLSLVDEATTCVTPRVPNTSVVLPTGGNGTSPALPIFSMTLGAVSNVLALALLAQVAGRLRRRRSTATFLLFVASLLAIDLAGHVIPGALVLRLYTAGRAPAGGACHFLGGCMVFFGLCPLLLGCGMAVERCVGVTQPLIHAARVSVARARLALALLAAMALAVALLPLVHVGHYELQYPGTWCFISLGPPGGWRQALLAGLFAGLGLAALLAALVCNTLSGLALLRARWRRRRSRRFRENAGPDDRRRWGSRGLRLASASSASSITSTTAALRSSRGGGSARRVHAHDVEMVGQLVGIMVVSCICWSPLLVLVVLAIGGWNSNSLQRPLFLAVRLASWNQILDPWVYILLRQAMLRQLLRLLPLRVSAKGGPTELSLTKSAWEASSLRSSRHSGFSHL

Structure (SMILES)	IC50 (rat EP1 receptor) [nM]	Bladder Contraction Inhibition Rate (%) 15 Minutes (Female SD rats) [%]	Bladder Contraction Inhibition Rate (%) 60 Minutes (Female SD rats) [%]
COc1ccc2c(c1)cc(-c1ccccc1)n2Cc1cccc(C(=O)O)n1 [Example 9-21, 6-(5-methoxy-2-phenylindol-1-ylmethyl)pyridine-2-carboxylic acid]	13	94.5	82.8
COc1cc2cc(-c3ccccc3)n(Cc3cccc(C(=O)O)n3)c2cc1F [Example 16-15]		85.0	54.9
